Values after ≈ are worked out from the molar mass of the structure shown. Values joined by “and” are separate entries in the source; they are usually repeats but may differ in a detail not shown here. Equal entries are not always repeated. Marks after values point to notes of the source that are not given here.
Columns and labels:
[1] = Clinical pharmacokinetics, single ascending inhaled dose in healthy subjects (Cohort 1); format: in vivo, human; conditions: for AUC0–24h / C max / AUC0–∞ / t ½: geometric mean (CV%); for t max: median (range), postend of inhalation
Description: This PC945 first‐in‐human clinical trial (ClinicalTrials.gov Identifier: NCT02715570) was a two‐part randomized, placebo‐controlled study to assess the safety and tolerability of PC945 in both healthy subjects and subjects with mild asthma, conducted at Parexel Early Phase Clinical Unit (Harrow, UK). The study was considered single‐blind as the appearance of active and placebo doses were different, however, it was conducted in a double‐blind manner (employing separate dosing and assessment teams).
Part one consisted of a single dose escalation study (Cohort 1) and a repeat dose study (Cohort 2) of inhaled PC945 in healthy subjects. Part two comprised a single dose study of inhaled PC945 in subjects with mild asthma (Cohort 3). The doses selected were predicted to achieve target lung concentrations above the IC90/MIC90 for A. fumigatus (based on data from a range of in vitro and in vivo systems) throughout a 24‐hour period and with a suitable safety margin based on animal toxicology data.
In Cohort 1, 11 healthy subjects (three males and eight females; mean age: 48.5 years, mean weight: 65.32 kg, mean body mass index [BMI]: 23.62 kg/m^2), attended the single ascending dose study. Eight healthy subjects started the study in which two subjects were randomized to each of the four ascending dose treatment sequences (Table 1); two subjects withdrew due to adverse events unrelated to study medication and both were replaced. One of the replacement subjects subsequently withdrew from the study for personal reasons and was replaced by another subject (Figure 1). Overall, six subjects each received three of four doses of PC945 (0.5, 2, 5, and 10 mg) and one dose of placebo. These doses were administered with a minimum of 13 days interval to allow for washout.
Serial blood samples were collected to determine plasma PC945 concentrations. For the single dose study in healthy subjects and in subjects with mild asthma, blood samples were collected predose and at 0.25, 0.5, 1, 2, 4, 6, 8, 24, 30, and 48 hours postend of inhalation and at the follow‐up visit. For the repeat dose study, blood samples were collected (a) predose and at 0.25, 0.5, 1, 2, 4, 6, 8, 10, 12, and 24 hours postend of inhalation on Days 1 and 7, and 30 and 48 hours on Day 7; (b) predose on Days 5 and 6; (c) at the follow‐up visit.

A. fumigatus strains = system: A. fumigatus strains; set-up: method as in PMID 28223388; conditions: EUCAST method, 96 clinically isolated A. fumigatus strains; cited from earlier work
[2] = system: CYP1A2, 2B6, 2C8, 2C9, 2C19, 2D6; test: CYP inhibition in pooled human liver microsomes, other isoforms; format: in vitro ADME
Description: PC945 and posaconazole (Sigma‐Aldrich, UK) were added to the pooled human liver microsomal samples (Pharmaron Rushden, UK) at concentrations of 0, 0.03, 0.1, 0.3, 1, 3, and 5 μmol/L. The mixtures were preincubated at 37°C for 0 or 30 minutes before the addition of selective CYP substrates. Microsomal reactions were terminated by adding 100 μL of cold (4°C) methanol containing appropriate internal standard. Aliquots (150 μL) of each sample were centrifuged and the supernatant was used for substrate analysis by ultra‐performance liquid chromatography with tandem mass spectrometry (UPLC‐MS/MS) on the day of incubations.
Change in substrate concentration was measured to determine the extent of CYP‐isoform inhibition. The 30‐minute preincubations were performed to determine whether there was time‐dependent inhibition of any CYP isoform (CYP1A2, 2B6, 2C8, 2C9, 2C19, 2D6, and 3A4/5). Untreated control contained only solvent, dimethyl sulfoxide (≤0.5% [v/v]). Positive control contained a chemical inhibitor selective for each CYP enzyme in the […].

[3] = Toxicokinetics/toxicity in rats, daily 2-hour inhalation for 14 days (plasma); conditions: for Ro (accumulation ratio): AUC0‐24h (Day14)/AUC0‐24h (Day 1)
Description: Each dose was inhaled over a 2‐hour period once daily for 14 days.
Lower limit of quantification of the assay was 10 pg/mL for clinical samples and 100 pg/mL for rat and dog plasma samples.

[4] = female rats, Day 14 of inhaled 2.0 mg/kg/day
[5] = female rats, Day 14 of inhaled 7.1 mg/kg/day
[6] = female rats, Day 14 of inhaled 16.6 mg/kg/day
[7] = female rats, single inhaled dose 2.0 mg/kg (Day 1)
[8] = female rats, single inhaled dose 7.1 mg/kg (Day 1)
[9] = female rats, single inhaled dose 16.6 mg/kg (Day 1)
[10] = male rats, Day 14 of inhaled 2.0 mg/kg/day
[11] = male rats, Day 14 of inhaled 7.1 mg/kg/day
[12] = male rats, Day 14 of inhaled 16.6 mg/kg/day
[13] = male rats, single inhaled dose 2.0 mg/kg (Day 1)
[14] = male rats, single inhaled dose 7.1 mg/kg (Day 1)
[15] = male rats, single inhaled dose 16.6 mg/kg (Day 1)

Compound: Cc1cc(N2CCN(c3ccc(C(=O)Nc4ccc(F)cc4)cc3)CC2)ccc1OC[C@@H]1CO[C@@](Cn2cncn2)(c2ccc(F)cc2F)C1 [PC945]
- Increase in C max for a doubling in dose ([1]; single doses 0.5 to 10 mg, 90% CI 1.54, 2.02): 1.77 fold
- Increase in AUC0–24h for a doubling in dose ([1]; single doses 0.5 to 10 mg, 90% CI 1.64, 2.15): 1.88 fold
- AUC0–24h ([1]; single inhaled 0.5 mg): 726 (73.4) ^a pg•h/mL
- C max ([1]; single inhaled 0.5 mg): 54.7 (64.8) ^a pg/mL
- AUC0–∞ ([1]; single inhaled 0.5 mg, n = 2): 1480 (7.41) ^b pg•h/mL
- t ½ ([1]; single inhaled 0.5 mg, n = 2, considered unreliable): 36.9 (24.1) ^b h
- t max ([1]; single inhaled 0.5 mg): 1 h and 1.10 (0.250‐2.10) ^a h
- AUC0–24h ([1]; single inhaled 2 mg): 1990 (102) pg•h/mL
- C max ([1]; single inhaled 2 mg): 128 (107) pg/mL
- AUC0–∞ ([1]; single inhaled 2 mg, n = 3): 3140 (175) ^c pg•h/mL
- t ½ ([1]; single inhaled 2 mg, n = 3, considered unreliable): 27.9 (58.4) ^c h
- t max ([1]; single inhaled 2 mg): 4 h and 4.11 (2.09‐8.11) h
- AUC0–24h ([1]; single inhaled 5 mg): 5440 (48.0) pg•h/mL
- C max ([1]; single inhaled 5 mg): 322 (51.1) pg/mL
- t ½ ([1]; single inhaled 5 mg, n = 4, considered unreliable): 37.3 (36.4) ^d h
- t max ([1]; single inhaled 5 mg): 5 h and 5.10 (2.08‐8.12) h
- C max ([1]; single inhaled 10 mg): 619 (39.1) pg/mL
- t ½ ([1]; single inhaled 10 mg, considered unreliable): 110 (16.5) h
- t max ([1]; single inhaled 10 mg): 2 h and 2.13 (0.330‐6.15) h
- Geometric mean minimum inhibitory concentration (MIC) (A. fumigatus strains): 0.17 µg/mL
- MIC50 (A. fumigatus strains): 0.125 µg/mL (≈ 0.183 µM)
- MIC90 (A. fumigatus strains): 1.0 µg/mL and 1 µg/mL
- Time‐dependent effect on other CYP isoforms ([2]; 30‐minute preincubation): no time‐dependent effect
- Cytochrome P450 inhibitory interaction, isoforms other than CYP3A4/5 ([2]; up to 5 μmol/L): only cytochrome P450 inhibitory interaction observed for PC945 was that on CYP3A4/5 substrates
- Ro (accumulation ratio) ([3]; female rats, 2.0 mg/kg/day): 1.84
- Ro (accumulation ratio) ([3]; female rats, 16.6 mg/kg/day): 2.53
- AUC0‐24h [3, 4]: 336 ng·h/mL
- C max [3, 4]: 19.2 ng/mL
- AUC0‐24h [3, 5]: 749 ng·h/mL
- C max [3, 5]: 50.4 ng/mL
- AUC0‐24h [3, 6]: 1850 ng·h/mL
- C max [3, 6]: 92.3 ng/mL
- AUC0‐24h [3, 7]: 183 ng·h/mL
- C max [3, 7]: 10.5 ng/mL
- AUC0‐24h [3, 8]: 416 ng·h/mL
- C max [3, 8]: 24.8 ng/mL
- AUC0‐24h [3, 9]: 731 ng·h/mL
- C max [3, 9]: 41.3 ng/mL
- Ro (accumulation ratio) ([3]; male rats, 2.0 mg/kg/day): 1.96
- AUC0‐24h [3, 10]: 202 ng·h/mL
- C max [3, 10]: 12.3 ng/mL
- AUC0‐24h [3, 11]: 424 ng·h/mL
- C max [3, 11]: 23.7 ng/mL
- AUC0‐24h [3, 12]: 1140 ng·h/mL
- C max [3, 12]: 76.9 ng/mL
- AUC0‐24h [3, 13]: 103 ng·h/mL
- C max [3, 13]: 7.3 ng/mL
- AUC0‐24h [3, 14]: 217 ng·h/mL
- C max [3, 14]: 15.8 ng/mL
- AUC0‐24h [3, 15]: 426 ng·h/mL
- C max [3, 15]: 26.0 ng/mL
- Margin over the clinical AUC following a 5 mg dose ([3]; rat, highest dose tested): 12 fold
- Time of C max after a single dose ([3]; rats, after the 2-hour inhalation): 4 h
- Systemic toxicity ([3]; rats, highest dose tested): No systemic toxicity
- Time of C max after the start of dosing ([3]; rats, single 2-hour inhaled dose (Day 1)): 6 h

Reference: article PMC7749516, “Safety and nonclinical and clinical pharmacokinetics of PC945, a novel inhaled triazole antifungal agent” (Pharmacology Research & Perspectives, 2020)
